Experimental data reported in publication PMC11134331, “Cell-active small molecule inhibitors validate the SNM1A DNA repair nuclease as a cancer target” (Chemical Science, 2024).
pIC50: −log10 of the molar value.

Assays:
[1] = test system: γH2AX foci in RPE-1 cells; assay: microscopic analysis of damage-induced subnuclear foci, RPE-1 cells; type: cell-based, human; conditions: RPE-1, cisplatin treated, without 19
Procedure: (§1) To assess the number of nuclear foci following cisplatin/inhibitor treatments, cells were plated in glass bottom dishes (as above) and allowed to attach. Following treatment, cells were fixed with 4% (v/v) formaldehyde in PBS, blocked with immunofluoresence (IF) blocking buffer (5% horse serum, 1% saponin in PBS) for 1 h, then incubated with primary antibodies at the desired concentrations in IF blocking buffer (overnight, 4 °C).
Images were imported into ImageJ and foci were counted using a macro adjusting for staining levels between experiments. Anti-γH2AX antibodies were a mouse monoclonal (Millipore; JBW301).

[2] = test system: γH2AX and EGFP-SNM1A foci in U2OS cells; assay: microscopic analysis of damage-induced subnuclear foci, U2OS cells expressing EGFP-SNM1A; type: cell-based, human; conditions: U2OS, cisplatin treated, without 19
Procedure: To this end, cells stably expressing N-terminally EGFP-tagged SNM1A (EGFP-SNM1A) were treated with 50 μM cisplatin alone, 19 (50 μM), or with a combination of both compounds. It is known that on treatment of cells with DNA crosslinking agents, SNM1A forms subnuclear foci that are associated with ongoing sites of DNA repair.[37] […] As previously established, cisplatin treatment efficiently induces co-localisation of EGFP-SNM1A foci and γH2AX foci within 4 hours following treatment, marking sites of cisplatin damage and its repair (Fig. 6C–E). These largely resolved 24 hours post-treatment, again consistent with previous studies.[16,37] Co-treatment of cells with 19 and cisplatin saw a robust induction of SNM1A foci, consistent with the SNM1A activity being dispensable for its localisation to sites of crosslink repair, and γH2AX foci formation (Fig. 6C–E). […] This clear persistence of repair intermediates and trapping of EGFP-SNM1A at the sites of these repair intermediate implies that 19 engages with SNM1A in a cellular context, delaying the completion of cisplatin crosslink repair, which, in turn, results in the sensitisation of cells to cisplatin.
as §1, with “°C). After washing cells three times with PBS, cells were incubated with secondary antibodies for 2–4 hours in IF blocking buffer, washed a further 3 times with PBS then stained with Hoechst 333 258 (1 μg mL^−1 in PBS) for 30 minutes before a further three washes (all washes and incubations were performed at room temperature, unless otherwise stated).” for “°C).”
Confocal images were obtained with a Plan APO 63X 1.40NA oil immersion objective, a pinhole setting of 1 AU, bandpass emission settings of 410–468 nm for Hoechst, 490–544 nm for EGFP, 579–624 nm for RFP or Alexa 568, and 633–695 nm for Alexa 647, a projected pixel dimension of around 110 nm × 110 nm, a pixel dwell time of 1.35 μs, and with a line averaging setting of 2. In order to ensure sufficient cell numbers (N > 300), images were acquired in a tiled 5 × 5 format corresponding to an image area of about 0.65 mm × 0.65 mm. Images were imported into ImageJ and foci were counted using a macro adjusting for staining levels between experiments. Anti-γH2AX antibodies were a mouse monoclonal (Millipore; JBW301).

SNM1A [3] = target: T1, SNM1A (Homo sapiens, UniProt Q6PJP8); assay: real-time fluorescence-based nuclease assay, SNM1A; type: biochemical; set-up: DNA encoding for the MBL and β-CASP domains of SNM1A (aa 676–1040) was cloned into the baculovirus transfer vector pFB-LIC-Bse; inferred from vector pFB-LIC-Bse and the IMAC purification; made in house; host or cells: Sf9 insect cells (baculovirus); conditions: for pIC50: real-time fluorescence-based nuclease assay, resynthesised compounds, read-out: SNM1A IC50
T1 sequence (Q6PJP8 676-1040): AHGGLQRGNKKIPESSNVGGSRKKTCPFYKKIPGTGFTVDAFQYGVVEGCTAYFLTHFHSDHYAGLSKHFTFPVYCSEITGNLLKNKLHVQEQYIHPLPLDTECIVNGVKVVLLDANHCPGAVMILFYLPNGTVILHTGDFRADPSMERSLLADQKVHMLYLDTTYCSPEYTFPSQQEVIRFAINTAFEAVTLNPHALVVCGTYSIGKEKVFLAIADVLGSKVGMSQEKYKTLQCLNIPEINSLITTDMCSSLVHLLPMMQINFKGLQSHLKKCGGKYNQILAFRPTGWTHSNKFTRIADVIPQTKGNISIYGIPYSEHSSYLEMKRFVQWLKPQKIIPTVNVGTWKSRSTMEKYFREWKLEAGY
Procedure: In brief, the fluorescence-based nuclease assay utilises a chemically modified 20-nucleotide ssDNA substrate with a fluorescein isothiocyanate (FITC) derived 5′-group and an internal black-hole-quencher-1 (BHQ-1), located eight nucleotides distal to the fluorescein group. In the intact substrate the BHQ-1 suppresses fluorescence, however, exonucleolytic digestion of the substrate from the 5′ end by SNM1A uncouples the BHQ-1 and FITC moieties (see Fig. 1D). Spectra were measured every 140 seconds with an increase in fluorescence indicating enzymatic activity by SNM1A (concentration: 0.1 nM).
(§2) Fluorescence-based nuclease digestion SNM1A–C assays were performed as described.[30,45] In the case of SNM1A and SNM1B, a 20-mer oligonucleotide with a 5′ FITC-conjugated-T and an internal BHQ-1 (black hole quencher) conjugated-T, eight nucleotides distal (3′) to the fluor was utilised; whereas for SNM1C a 20-mer oligonucleotide with a 5′ FITC-conjugated-T and a 3′ BHQ-1(black hole quencher) was used to capture all possible endonucleolytic incisions. Reactions (25 μL) were performed in 384 well microplates in nuclease buffer (20 mM HEPES-KOH pH 7.5, 50 mM KCl, 10 mM MgCl2, 0.5 mM TCEP, 0.05% (v/v) Triton-X, 0.1 mg mL^−1 BSA, 5% (v/v) glycerol) with SNM1A/B/C (0.1 nM SNM1A, 0.5 nM SNM1B and 1 nM SNM1C) as indicated. Proteins were incubated for 10 min at RT with the stated compound where applicable, before the reaction was initiated with the addition of 10 nM DNA substrate. […] Fluorescence spectra were measured every 140 s, for 35 min, at 37 °C. The fluorescence intensity of each well was plotted against compound concentration and fitted using a log (inhibitor) response curve using GraphPad Prism software (GraphPad Software, Inc., La Jolla, CA, USA).

solubility = type: physicochemical
SNM1B = target: T2, SNM1B (Homo sapiens, UniProt Q9H816); assay: gel-based nuclease assay, SNM1B; type: biochemical; conditions: 1 nM SNM1B
T2 construct: for the MBL and β-CASP domains of SNM1B (aa 1–335) into baculoviral expression vectors pFB-CT10HF-LIC; made in house; host or cells: Sf9 insect cells (baculovirus)
T2 sequence (Q9H816 1-335): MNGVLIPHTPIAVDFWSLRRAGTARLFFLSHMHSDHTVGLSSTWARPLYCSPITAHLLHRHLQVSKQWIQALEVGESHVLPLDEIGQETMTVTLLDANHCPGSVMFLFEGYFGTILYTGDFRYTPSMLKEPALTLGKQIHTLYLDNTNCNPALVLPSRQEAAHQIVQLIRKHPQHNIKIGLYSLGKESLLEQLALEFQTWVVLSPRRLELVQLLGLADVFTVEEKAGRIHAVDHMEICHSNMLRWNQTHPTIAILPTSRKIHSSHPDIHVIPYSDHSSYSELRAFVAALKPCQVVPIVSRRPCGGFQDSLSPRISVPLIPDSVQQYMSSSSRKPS
Source text: (§3) To validate the inhibition of SNM1A, SNM1B, and SNM1C observed in the fluorescence-based screening assays, we then performed gel-based assays using 3′ terminally-labelled oligonucleotide substrates that enable both quantitative and qualitative (visual) assessment of the pattern of inhibition, for a subset of compounds. Importantly, whereas the fluorescence-based assay measures a single hydrolytic event at the substrate terminus, the gel-based nuclease assay informs on the pattern of digestion of the entire 51-mer substrate DNA over time.
(§4) Standard exonuclease assays were carried out in a 10 μL final volume containing 20 mM HEPES-KOH, pH 7.5, 50 mM KCl, 0.5 mM TCEP, 10 mM MgCl2, 0.05% (v/v) Triton X-100, 5% (v/v) glycerol, and SNM1 proteins as indicated. Inhibitors were dissolved in DMSO and diluted immediately prior to the reaction in the above buffer. Inhibitors were serially diluted two-fold from 100 μM. The DMSO concentration was kept constant at 0.1% (v/v) in the final reaction mixture. Inhibitors were incubated with the indicated SNM1 enzyme for 10 minutes at room temperature; reactions were initiated by addition of 10 nM DNA substrate and incubated at 37 °C for 20 min. Reactions were quenched by addition of 5 μL stop solution (95% formamide, 10 mM EDTA, 0.25% (v/v) xylene cyanol, 0.25% (v/v) bromophenol blue) and heated at 95 °C for 3 min. Reactions were analysed by 20% denaturing polyacrylamide gel electrophoresis solution of 19 : 1 acrylamide:bis-acrylamide, BioRad and 7 M urea (Sigma Aldrich) in 1 × TBE (Tris-borate EDTA) buffer. Electrophoresis was carried out at 525 V for 75 minutes; gels were subsequently fixed for 60 minutes in a 50% (v/v) methanol, 10% (v/v) acetic acid solution, and dried at 80 °C for two hours under vacuum. Dried gels were exposed to a Kodak Phosphor imager screen and scanned using a Typhoon 9500 instrument (GE Healthcare), scanned images were quantified using ImageJ.
Suppl. Figure 10. Increasing concentrations (as indicated, in μM) of compounds incubated with 1 nM SNM1B or 2.5 nM SNM1C (room temperature, 10 min), before initiating nuclease reaction by addition of ssDNA (37 °C, 20 min). Products were analysed by 20% denaturing PAGE. Gels are representative versions from a minimum of three independent experimental repeats.
(1 picture or pasted object on this page, not shown here)

[4] = test system: U2OS (osteosarcoma) cells; assay: clonogenic survival assay, U2OS cells; type: cell-based, human; conditions: for cell death as single agent: U2OS, 50 μM compound
Procedure: Clonogenic assays were performed in 10 cm tissue culture dishes (for RPE-1 cells, U2OS cells and derived clones). Cells (1000 per dish) were seeded in complete media (10 mL) and allowed to attach overnight, then treated with cisplatin or cisplatin plus inhibitor for the times stated. Following treatments, cells were allowed to grow and form colonies for 10 days. Colonies formed were stained with Coomassie R250 (Sigma) and counted on a COLCount Colony Counter (Oxford Optronix). All experiments represent the mean (±SEM) of at least three biological repeats of duplicate dishes/flasks for each treatment.

SNM1A [5] = target: T1, SNM1A; assay: gel-based nuclease assay, SNM1A; type: biochemical; set-up: DNA encoding for the MBL and β-CASP domains of SNM1A (aa 676–1040) was cloned into the baculovirus transfer vector pFB-LIC-Bse; inferred from vector pFB-LIC-Bse and the IMAC purification; made in house; host or cells: Sf9 insect cells (baculovirus); conditions: 0.5 nM SNM1A
Source text: as §3, §4

SNM1C [6] = target: T3, SNM1C (Homo sapiens, UniProt Q96SD1); assay: real-time fluorescence-based nuclease assay, SNM1C; type: biochemical
T3 construct: for the MBL and β-CASP domains of SNM1C (aa 1–362) into the baculovirus expression vector pBF-6HZB; made in house; host or cells: Sf9 insect cells (baculovirus)
Source text: There is structural similarity between SNM1A, SNM1B, and SNM1C and major mechanistic features are likely conserved between the three nucleases. We therefore tested (13) and other hydroxamic acid analogues for inhibition of SNM1B and SNM1C. […] Note that the substrate utilised for the high-throughput fluorescence based and subsequent SNM1A and SNM1B assays differed slightly for SNM1C reflecting its (primarily) endonucleolytic, rather than exonucleolytic, activity (ESI Fig. 9 ^†).
as §2

SNM1C [7] = target: T3, SNM1C; assay: gel-based nuclease assay, SNM1C; type: biochemical
Source text: as §3, §4
Suppl. Figure 10. […] Products were analysed by 20% denaturing PAGE. […]

T3 sequence (Q96SD1 1-362): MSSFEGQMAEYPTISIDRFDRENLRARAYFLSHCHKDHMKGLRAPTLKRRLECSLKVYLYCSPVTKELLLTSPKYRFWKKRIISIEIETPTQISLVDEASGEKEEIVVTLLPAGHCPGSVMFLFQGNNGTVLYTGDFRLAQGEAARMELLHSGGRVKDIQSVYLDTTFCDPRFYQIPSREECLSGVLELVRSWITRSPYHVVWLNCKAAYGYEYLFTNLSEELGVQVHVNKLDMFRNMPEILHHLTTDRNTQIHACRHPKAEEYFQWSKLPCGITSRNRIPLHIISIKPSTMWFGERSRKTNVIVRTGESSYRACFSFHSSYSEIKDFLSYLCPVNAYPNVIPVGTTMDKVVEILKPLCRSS

SMILES | pIC50 (SNM1A [3]) | inhibition of SNM1B in gel-based assay (SNM1B) | inhibition of SNM1A in gel-based assay (SNM1A [5]) | also measured
N.N.[Cl][Pt][Cl] [cisplatin, reference compound] | – | – | – | average γH2AX foci count at 24 hours [1]: 10.4 ± 0.3 foci; average number of γH2AX foci at 24 hours [2]: 21.5 ± 0.5 foci
O=c1[nH]c2cnc3ccc(Cl)cc3c2[nH]c1=O [compound 2] | 5.70 | – | – | solubility (solubility): poor solubility
COc1cc2c3c(cccc3c1)C(=O)N(O)C2=O [compound 3] | 5.54 | – | – | solubility (solubility): poor solubility
C=CCNc1nc(N[C@H](C)C(=O)NO)c2cc(Cl)ccc2n1 [compound 12] | 5.66 | good inhibition | good inhibition | effect on cisplatin cytotoxicity ([4]; U2OS wild-type, 50 μM compound 20 hours pre-treatment, 0–15 μM cisplatin): potentiation of cisplatin cytotoxicity; cell death as single agent [4]: ≤ 10%
C=CCNc1nc(N[C@@H](C)C(=O)NO)c2cc(Cl)ccc2n1 [compound 13] | 6.10 | good inhibition | good inhibition | cell death as single agent [4]: ≤ 10%
C[C@H](Nc1nc(NCc2ccccc2)nc2ccc(Cl)cc12)C(=O)NO [compound 16] | 4.47 | – | – | pIC50 (SNM1C [6]; real-time fluorescence-based nuclease assay): 5.96
CCN(CC)c1nc(N[C@@H](C)C(=O)NO)c2cc(Cl)ccc2n1 [compound 18] | < 4.00 | – | – | selectivity among SNM1A, SNM1B, SNM1C (SNM1C [6]; fluorescence-based assays): only potent against SNM1C
C=CCNC(=O)c1nc(N[C@@H](C)C(=O)NO)c2ccccc2n1 [compound 20] | 4.08 | good inhibition | good inhibition | decrease in SNM1A potency compared to 13 (SNM1A [3]; fluorescence-based assay): 100 fold
CCOc1nc(N[C@@H](C)C(=O)NO)c2cc(Cl)ccc2n1 [compound 21] | 4.17 | – | – | concentration giving complete inhibition of SNM1C digestion (SNM1C [7]): ~6 µM; inhibition of SNM1C in gel-based assay (SNM1C [7]; 2.5 nM SNM1C): clearly inhibits the nuclease activity of SNM1C
